Columns and labels:
[1] = test system: barley; assay: Test B preemergence/postemergence greenhouse plant response rating 0 to 10; format: in vivo, Hordeum vulgare; conditions: 0 to 10 scale
In short: (§1)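 Test chemicals were sprayed onto freshly planted seed and, concurrently, onto young plants between the one and four leaf stage. After a twelve- to sixteen-day greenhouse period, each species was visually compared with untreated controls.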

[2] = test system: bedstraw; assay: as above; format: in vivo, Galium aparine; conditions: 0 to 10 scale
In short: as §1

[3] = test system: chickweed; assay: as above; format: in vivo, Stellaria media; conditions: 0 to 10 scale
In short: as §1

[4] = test system: cocklebur; assay: as above; format: in vivo, Xanthium pensylvanicum; conditions: 0 to 10 scale
In short: as §1

[5] = test system: morningglory; assay: as above; format: in vivo, Ipomoea hederacea; conditions: 0 to 10 scale
In short: as §1

[6] = test system: sorghum; assay: as above; format: in vivo, Sorghum bicolor; conditions: 0 to 10 scale
In short: as §1

[7] = test system: soybean; assay: as above; format: in vivo, Glycine max; conditions: 0 to 10 scale
In short: as §1

[8] = test system: sugar beet; assay: as above; format: in vivo, Beta vulgaris; conditions: 0 to 10 scale
In short: as §1

[9] = test system: velvetleaf; assay: as above; format: in vivo, Abutilon theophrasti; conditions: 0 to 10 scale
In short: as §1

[10] = test system: wild buckwheat; assay: as above; format: in vivo, Polygonum convolvulus; conditions: 0 to 10 scale
In short: as §1

[11] = test system: barley; assay: Test C preemergence/postemergence greenhouse plant response rating 0 to 100; format: in vivo, Hordeum vulgare; conditions: POSTEMERGENCE; for Plant response rating Barley Igri: 0 to 100 scale
Text: (§2) The compounds evaluated in this test were formulated in a non-phytoxic solvent and applied to the soil surface before plant seedlings emerged (preemergence application), to water that covered the soil surface (flood application), and to plants that were in the one-to-four leaf stage (postemergence application). A sandy loam soil was used for the preemergence and postemergence tests, while a silt loam soil was used in the flood test. Water depth was approximately 2.5 cm for the flood test and was maintained at this level for the duration of the test. Plant species in the preemergence and postemergence tests consisted of barley (Hordeum vulgare), bedstraw (Galium aparine), blackgrass (Alopecurus myosuroides), chickweed (Stellaria media), corn (Zea mays), cotton (Gossypium hirsutum), crabgrass (Digitaria sanguinalis), downy brome (Bromus tectorum), giant foxtail (Setaria faberii), lambsquarters (Chenopodium album), morningglory (Ipomoea hederacea), pigweed ([…]), rape (Brassica napus), ryegrass (Lolium multiflorum), sorghum (Sorghum bicolor), soybean (Glycine max), speedwell (Veronica persica), sugar beet (Beta vulgaris), velvetleaf (Abutilon theophrasti), wheat (Triticum aestivum), wild buckwheat (Polygonum convolvulus), and wild oat (Avena fatua). All plant species were planted one day before application of the compound for the preemergence portion-of this test. Plantings of these species were adjusted to produce plants of appropriate size for the post-emergence portion of the test. […] All plant species were grown using normal greenhouse practices. Visual evaluations of injury expressed on treated plants, when compared to untreated controls, were recorded approximately fourteen to twenty one days after application of the test compound. […] A dash (-) response means no test result.

[12] = test system: blackgrass; assay: as above; format: in vivo, Alopecurus myosuroides; conditions: POSTEMERGENCE; for Plant response rating, Blackgrass: 0 to 100 scale
Text: as §2

[13] = test system: chickweed; assay: as above; format: in vivo, Stellaria media; conditions: POSTEMERGENCE; for Plant response rating, Chickweed: 0 to 100 scale
Text: as §2

[14] = test system: pigweed; assay: as above; format: in vivo, Amaranthusretroflexus; conditions: POSTEMERGENCE; for Plant response rating Pigweed: 0 to 100 scale
Text: as §2

[15] = test system: rape; assay: as above; format: in vivo, Brassica napus; conditions: POSTEMERGENCE; for Plant response rating, Rape: 0 to 100 scale
Text: as §2

[16] = test system: ryegrass; assay: as above; format: in vivo, Lolium multiflorum; conditions: POSTEMERGENCE; for Plant response rating Ryegrass: 0 to 100 scale
Text: as §2

[17] = test system: soybean; assay: as above; format: in vivo, Glycine max; conditions: POSTEMERGENCE; for Plant response rating, Soybean: 0 to 100 scale
Text: as §2

[18] = test system: umbrella sedge; assay: Test C flood test plant response rating 0 to 100; format: in vivo, Cyperus difformis; conditions: for Plant response rating (0 to 100), Umbrella sedge: under POSTEMERGENCE head (flood test species); for Plant response rating Umbrella sedge: flood test species listed under POSTEMERGENCE, 0 to 100 scale
Text: as §2

CCOC(=O)COc1cc(-c2nn3c(c2Cl)CCCC3)c(F)cc1Cl [Compound 42]
9: Plant response rating, Bedstraw ([2]; POSTEMERGENCE, Rate 200 g/ha) | Plant response rating, Bedstraw ([2]; Rate 200 g/ha, PREEMERGENCE) | Plant response rating, Morningglory ([5]; POSTEMERGENCE, Rate 50 g/ha) | Plant response rating, Wild buckwheat ([10]; POSTEMERGENCE, Rate 50 g/ha) | Plant response rating, Wild buckwheat ([10]; Rate 200 g/ha, POSTEMERGENCE)
30: Plant response rating Barley Igri ([11]; 62 g/ha) | Plant response rating (0 to 100), Barley Igri ([11]; Rate 31 g/ha) | Plant response rating, Blackgrass ([12]; 62 g/ha) | Plant response rating, Blackgrass ([12]; 125 g/ha) | Plant response rating Ryegrass ([16]; 62 g/ha)
90: Plant response rating Pigweed ([14]; 62 g/ha) | Plant response rating Pigweed ([14]; 125 g/ha) | Plant response rating (0 to 100), Pigweed ([14]; Rate 16 g/ha) | Plant response rating (0 to 100), Pigweed ([14]; Rate 31 g/ha) | Plant response rating Umbrella sedge ([18]; 125 g/ha)
10: Plant response rating, Bedstraw ([2]; POSTEMERGENCE, Rate 50 g/ha) | Plant response rating, Cocklebur ([4]; POSTEMERGENCE, Rate 50 g/ha) | Plant response rating, Cocklebur ([4]; POSTEMERGENCE, Rate 200 g/ha) | Plant response rating, Morningglory ([5]; Rate 200 g/ha, POSTEMERGENCE) | Plant response rating, Sugar beet ([8]; POSTEMERGENCE, Rate 50 g/ha) | Plant response rating, Sugar beet ([8]; PREEMERGENCE, Rate 50 g/ha) | Plant response rating, Sugar beet ([8]; Rate 200 g/ha, POSTEMERGENCE) | Plant response rating, Sugar beet ([8]; Rate 200 g/ha, PREEMERGENCE) | Plant response rating, Velvetleaf ([9]; POSTEMERGENCE, Rate 50 g/ha) | Plant response rating, Velvetleaf ([9]; Rate 200 g/ha, POSTEMERGENCE) | Plant response rating (0 to 100), Blackgrass ([12]; Rate 16 g/ha) | Plant response rating (0 to 100), Ryegrass ([16]; Rate 16 g/ha) | Plant response rating (0 to 100), Umbrella sedge ([18]; Rate 31 g/ha)
50: Plant response rating, Chickweed ([13]; 62 g/ha) | Plant response rating (0 to 100), Rape ([15]; Rate 16 g/ha)
70: Plant response rating (0 to 100), Rape ([15]; Rate 31 g/ha) | Plant response rating Umbrella sedge ([18]; 62 g/ha)
5: Plant response rating, Sorghum ([6]; Rate 200 g/ha, POSTEMERGENCE) | Plant response rating, Soybean ([7]; Rate 200 g/ha, POSTEMERGENCE)
7: Plant response rating, Bedstraw ([2]; PREEMERGENCE, Rate 50 g/ha) | Plant response rating, Wild buckwheat ([10]; Rate 200 g/ha, PREEMERGENCE)
95: Plant response rating, Rape ([15]; 62 g/ha)
100: Plant response rating, Rape ([15]; 125 g/ha)
8: Plant response rating, Chickweed ([3]; POSTEMERGENCE, Rate 200 g/ha)
4: Plant response rating, Barley ([1]; POSTEMERGENCE, Rate 200 g/ha) | Plant response rating, Chickweed ([3]; POSTEMERGENCE, Rate 50 g/ha) | Plant response rating, Sorghum ([6]; POSTEMERGENCE, Rate 50 g/ha) | Plant response rating, Soybean ([7]; POSTEMERGENCE, Rate 50 g/ha)
40: Plant response rating Barley Igri ([11]; 125 g/ha) | Plant response rating (0 to 100), Chickweed ([13]; Rate 31 g/ha) | Plant response rating Ryegrass ([16]; 125 g/ha) | Plant response rating (0 to 100), Soybean ([17]; Rate 31 g/ha)
80: Plant response rating, Soybean ([17]; 125 g/ha)
0: Plant response rating, Barley ([1]; PREEMERGENCE, Rate 50 g/ha) | Plant response rating, Barley ([1]; Rate 200 g/ha, PREEMERGENCE) | Plant response rating, Chickweed ([3]; PREEMERGENCE, Rate 50 g/ha) | Plant response rating, Chickweed ([3]; Rate 200 g/ha, PREEMERGENCE) | Plant response rating, Cocklebur ([4]; PREEMERGENCE, Rate 50 g/ha) | Plant response rating, Cocklebur ([4]; Rate 200 g/ha, PREEMERGENCE) | Plant response rating, Morningglory ([5]; PREEMERGENCE, Rate 50 g/ha) | Plant response rating, Sorghum ([6]; PREEMERGENCE, Rate 50 g/ha) | Plant response rating, Sorghum ([6]; Rate 200 g/ha, PREEMERGENCE) | Plant response rating, Soybean ([7]; PREEMERGENCE, Rate 50 g/ha) | Plant response rating, Soybean ([7]; Rate 200 g/ha, PREEMERGENCE) | Plant response rating, Velvetleaf ([9]; PREEMERGENCE, Rate 50 g/ha) | Plant response rating, Wild buckwheat ([10]; PREEMERGENCE, Rate 50 g/ha) | Plant response rating (0 to 100), Umbrella sedge ([18]; Rate 16 g/ha)
3: Plant response rating, Barley ([1]; POSTEMERGENCE, Rate 50 g/ha) | Plant response rating, Morningglory ([5]; Rate 200 g/ha, PREEMERGENCE)
60: Plant response rating, Chickweed ([13]; 125 g/ha) | Plant response rating, Soybean ([17]; 62 g/ha)
6: Plant response rating, Velvetleaf ([9]; Rate 200 g/ha, PREEMERGENCE)
20: Plant response rating (0 to 100), Barley Igri ([11]; Rate 16 g/ha) | Plant response rating (0 to 100), Blackgrass ([12]; Rate 31 g/ha) | Plant response rating (0 to 100), Chickweed ([13]; Rate 16 g/ha) | Plant response rating (0 to 100), Ryegrass ([16]; Rate 31 g/ha) | Plant response rating (0 to 100), Soybean ([17]; Rate 16 g/ha)

Source: patent US6358885B1, “Substituted phenylheterocyclic herbicides” (Mississippi State University, priority 1992, dated 2002)
